Source: patent US7101844B2, “Cytoplasmic transduction peptides and uses thereof” (Creagene, Inc., priority 2002, dated 2006)
Entries after “also recorded” stand apart in the source; their conditions may differ.

How the values were obtained:
[1] = tested on: HeLa cells; experiment: Transduction of PTD- and CTP-β-galactosidase into HeLa cells (X-gal staining after fixation); assay type: cell-based; conditions: 100 μg/ml, 1 hr; for transduction potential: β-galactosidase fusion protein, HeLa cells, fixation
Source text: Although various other substitutions could be performed, it is essential in this invention that the introduction of a positive charge by arginine and the substitution by an α-helix stabilizing amino acid should be carried out for maintaining the principle function of the PTD peptide. Therefore, as a substitute amino acid, the positively charged amino acid is restricted to arginine, and the negatively charged amino acid is restricted to glutamic acid. β-galactosidase was fused to the CTP candidate peptide, the fusion proteins were isolated and purified (see FIG. 2), and HeLa cells were treated with each of the fusion proteins. This was then followed by an analysis of the transduction potential and a determination of the extent of the cytoplasmic remaining property.
The transduction potential of the PTD and CTP candidates was tested with HeLa cells. Using a 24-well plate (Nunc), 5×10^4 HeLa cells were inoculated into high glucose DMEM (containing 10% FBS) and cultured for 36 hr. The cells were rinsed with PBS and treated with 100 μg/ml of PTD- and CTP-β-galactosidase in an opti-MEM I medium. After 1-hr incubation, cells were fixed for 10 min at room temperature with a fixation solution (2% formaldehyde, 0.2% glutaraldehyde in PBS). Then, the cells were rinsed twice with PBS, and stained for 2 hr with dye (0.1% X-gal, 5 mM potassium ferricyanide, 5 mM potassium ferrocyanide, 2 mM MgCl2 in PBS) to examine their transduction potential (see FIG. 3). The samples showing a low level of staining, even after a 2-hr staining, were incubated overnight, and then stained for the relative transduction potential. The transduction potentials of the PTD and CTP candidates into HeLa cells were seen to be in the following order: PTD5<CTP502<<CTP501=CTP506<CTP507<CTP505<CTP503=CTP504<CTP508=CTP510=MTS<CTP509<<PTD=CTP511<<CTP512.

[2] = tested on: HeLa cells; experiment: Transduction potential of CTP-β-gal following treatment with trypsin (staining); assay type: cell-based; conditions: 50 μg/ml, 20 hr, trypsin before fixation
Protocol: HeLa cells were cultured for 1 day in DMEM (high glucose) at a density of 2×10^5/ml in 48-well plates. Cells were washed once with 1× PBS, and then incubated further for additional 20 hr in OPTI-MEM containing PTD-β-gal, MTS-β-gal, CTP501-β-gal or CTP514-β-gal, respectively, at a concentration of 50 μg/ml. Thereafter, the cells were treated with trypsin-EDTA (10×) for 3 min at 37° C. to remove the CPP-β-gal attached to the cell surface, and then rinsed twice with 1× PBS, followed by fixing with a fixation solution for 10 min at room temperature. After washing twice with 1× PBS, the cells were stained with a staining solution for 2 hr at 37° C. and photographed under a microscope (FIG. 6b).

[3] = tested on: HeLa cells; experiment: Quantitative analysis of the membrane permeability of CTP-β-gal (β-gal activity of lysates of trypsinized cells); assay type: cell-based; conditions: incubation for 20 hr
Protocol: For the quantitatation of the permeability of each CPP-fusion protein, HeLa cells were treated with PTD, MTS and CTP508, 509, 511, 512, 513 and 514, CPP-β-gal fusion proteins for 20 hr as described above, and the cells were trypsinized, followed by measuring the amounts of fusion protein imported into cells. Trypsin-treated cells were washed twice with 10% FBS-containing DMEM (high glucose) to inactivate any residual trypsin activity, and then washed once with 1× PBS. The cells collected by centrifugation were resuspended in a 0.9% Triton-X 100 solution, incubated for 10 min at room temperature to lyse cells, and then the supernatant of each lysate was obtained by centrifugation at 12000 rpm for 2 min. The β-gal activity of each sample was measured at 570 nm using enhanced β-gal assay kit (GTS Inc, USA) and an ELISA reader.

[4] = tested on: HeLa cells; experiment: Transduction potential of FITC-labeled peptides by FACS; assay type: cell-based; conditions: FITC-labeled peptide
Source text: It has been shown by trypsin treatment that the transduction potential of the peptides known so far is distorted presumably due to the influence of cell fixation (46). Therefore, to verify that the CTP-β-gal of this invention has genuine transduction potential, trypsinization steps were included in the experiments as described above. At this time, since the activity of CTP per se may be affected by its fusion partner β-gal, CTP labeled with fluorescent molecule instead of β-gal was examined for its transduction capacity into cells. HeLa cells were treated with CTP-FITC and then trypsinized prior to harvest. The amounts of the peptides transduced into the cells were measured by FACS (Fluorescence-activated cell sorter) analysis with FACSCalibur (Becton Dickison, USA).
HeLa cells were inoculated into 12-well plates at a density of 2×10^5/ml and cultured for 1 day at 37° C. […] The cells were washed twice and the fluorescent intensity of each sample was measured by FACS.
In order to examine the transduction potential of peptides at different concentrations, cells were treated for 2 hr with peptides with increasing concentrations of peptides, and then trypsinized before examination. The fluorescent intensity in the cells was measured by FACS.

[5] = tested on: HeLa cells; experiment: Subcellular localization of CTP-FITC by confocal microscope without cell fixation; assay type: cell-based; conditions: FITC-labeled peptide, 25 μg/ml, 1 hr
Source text: Fixation step is inevitable for examining the subcellular localization of the transduced β-gal in the cells with antibodies. However, according to the previous reports, the fusion protein attached to cell surface is very likely to be introduced into the cell during a cell fixation procedure, which may affect its transduction potential and its subcellular localization. However, FITC-labeled membrane permeation peptides allow its subcellular localization to be observed under a confocal microscope without cell fixation. Monolayered HeLa cells were treated for 1 hr with FITC-labeled CTP, PTD or MTS at a concentration of 25 μg/ml, and washed three times with HBSS, followed by observation under a confocal microscope without cell fixation.

[6] = tested on: HeLa, L929, RENCA, Jurkat cell lines and splenocytes; experiment: Transduction potential of CTP in various cell types; assay type: cell-based, human, mouse; conditions: FITC-labeled peptide
Protocol: The examples described above analyzed the transduction potential solely by the use of HeLa cells. In this Example, the transduction potential of CTP was evaluated with other cell types including mouse cell lines (mouse fibroblast L929 and mouse renal cancer cell line RENCA), human lymphoid T cell line (Jurkat cells) and primary mouse splenocytes.

## CTP512: CTP (2G4R8R9R), sequence YGRRARRRRRR; representative CTP used from Example 5-4 on
[1]
  transduction potential: higher transduction potential than the wild type PTD; also recorded: significantly high transduction potential
[1]; listed as CTP 512
  transduction potential: transduction potential higher than wild type PTD
[1]; β-galactosidase fusion, X-gal staining
  order of transduction potentials into HeLa cells: CTP511<<CTP512
[2]
  β-gal activity transduced into cells: much more efficient to transduce β-gal into cells than either PTD or MTS
[3]
  transduction into HeLa cells: much higher transduction potential than either the PTD or the MTS
[4]; 2 hr, trypsinized
  transduction potential at the same concentrations: significantly higher transduction potential than either PTD or MTS
[4]; trypsinized cells, FACS
  transduction potential over time: higher transduction potential than the PTD in all period of time
[5]
  order of transduction potential: CTP512>513
  subcellular localization: observed only in the cytoplasm, and not in the nucleus
[6]
  transduction potential in various cell types: highest transduction potential
